Data on 10 compounds can be found in patent publication US20240158446A1, “CYCLIC COMPOUND HAVING SELECTIVE INHIBITORY ACTION ON KRAS OVER HRAS AND NRAS” (CHUGAI SEIYAKU KABUSHIKI KAISHA, priority 2021, published 2024).

In test [1] the target is GDP-bound NRAS wild-type protein (Homo sapiens, UniProt P01111). The experiment in a line: Binding to NRAS by surface plasmon resonance (SPR), Single Cycle Kinetics. As to conditions: SPR, GDP-bound NRAS wild-type protein vs GDP-bound KRAS wild-type protein.
The target of test [2] is GDP-bound KRAS wild-type protein (Homo sapiens, UniProt P01116). The experiment in a line: Binding to KRAS by surface plasmon resonance (SPR), Single Cycle Kinetics. As to conditions: GDP-bound KRAS wild-type protein, read-out: KRAS KD. A general note: SPR reads the build-up and loss of mass on a sensor chip optically.
For test [3], the target named is GDP-bound HRAS wild-type protein (Homo sapiens, UniProt P01112). As to the kind of experiment: Binding to HRAS by surface plasmon resonance (SPR), Single Cycle Kinetics. The conditions noted are these: SPR, GDP-bound HRAS wild-type protein vs GDP-bound KRAS wild-type protein.
The mark [4] stands for this setting: SPR Single Cycle Kinetics, 1:1 binding model.
Setting [5] is: SPR, Single Cycle Kinetics, 1:1 binding model.

Read-outs that look alike come from different tables or passages of the source. Where a SMILES comes first, the peptide text is derived from it. Bridges are numbered along the chain shown (N, C = ends). [ ]: non-standard residue; d: D form. The star is where a group is joined. hPhe(3-Cl-4-CF3) = N[C@@H](CCc1ccc(C(F)(F)F)c(Cl)c1)C(=O)O; NPrPhe(4-CF3) = CCCN[C@@H](Cc1ccc(C(F)(F)F)cc1)C(=O)O; NPrPhe(4-Me) = CCCN[C@@H](Cc1ccc(C)cc1)C(=O)O; NMeGly(cPent) = CN[C@H](C(=O)O)C1CCCC1; Pro(4,4-F2) = O=C(O)[C@@H]1CC(F)(F)CN1; cisHyp = O=C(O)[C@@H]1C[C@H](O)CN1; NMeD = CN[C@@H](CC(=O)O)C(=O)O; NMeL = CN[C@@H](CC(C)C)C(=O)O; Morpholide = C1CN(*)CCO1; NMeA = CN[C@@H](C)C(=O)O; Ac5c = NC1(C(=O)O)CCCC1; Aze = O=C(O)[C@@H]1CCN1; Sar = CNCC(=O)O

GDP-bound HRAS wild-type protein, sequence (P01112 whole entry): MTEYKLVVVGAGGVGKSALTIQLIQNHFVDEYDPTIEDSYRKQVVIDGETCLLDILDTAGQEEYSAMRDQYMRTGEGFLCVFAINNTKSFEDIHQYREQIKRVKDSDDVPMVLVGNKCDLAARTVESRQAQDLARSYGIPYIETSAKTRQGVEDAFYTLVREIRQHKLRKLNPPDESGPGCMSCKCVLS
GDP-bound NRAS wild-type protein, sequence (P01111 whole entry): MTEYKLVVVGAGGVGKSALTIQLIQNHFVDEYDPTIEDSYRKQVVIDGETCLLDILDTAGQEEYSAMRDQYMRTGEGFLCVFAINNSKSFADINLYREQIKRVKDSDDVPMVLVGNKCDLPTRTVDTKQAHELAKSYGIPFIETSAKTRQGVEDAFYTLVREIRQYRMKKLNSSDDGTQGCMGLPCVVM
GDP-bound KRAS wild-type protein, sequence (P01116 whole entry): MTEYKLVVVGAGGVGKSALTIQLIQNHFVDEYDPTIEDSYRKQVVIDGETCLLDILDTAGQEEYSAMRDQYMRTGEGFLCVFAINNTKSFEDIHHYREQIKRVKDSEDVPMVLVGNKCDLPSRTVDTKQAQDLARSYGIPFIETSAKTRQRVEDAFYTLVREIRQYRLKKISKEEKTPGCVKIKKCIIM

Turning to `CCCN1C(=O)CN(C)C(=O)CNC(=O)[C@H]([C@@H](C)CC)NC(=O)[C@H](CC(C)C)N(C)C(=O)C[C@@H](C(=O)N(C)C)N(C)C(=O)[C@H](C2CCCC2)N(C)C(=O)C2(CCCC2)NC(=O)[C@@H]2CC(F)(F)CN2C(=O)[C@H](CCc2ccc(C(F)(F)F)c(Cl)c2)NC(=O)CN(C)C(=O)[C@@H]1Cc1ccc(C(F)(F)F)cc1` [PP0419] ([NMeL]IG[Sar][NPrPhe(4-CF3)][Sar][hPhe(3-Cl-4-CF3)][Pro(4,4-F2)][Ac5c][NMeGly(cPent)][NMeD]-NMe2; lactam N-11), in test [1], the “NRAS/KRAS (ratio of KD value with respect to NRAS to KD value with respect to KRAS)” value is “B (a compound having 3 or more and less than 10 is denoted as B)”. Moreover, the Kd (as a rule, a measure of binding affinity in units of concentration) in test [2] (setting [4]) was 67 pM. For the same compound, the “HRAS/KRAS (ratio of KD value with respect to HRAS to KD value with respect to KRAS)” value in test [3] was “C (A compound having a KD ratio of 0.1 or more and less than 3 is denoted as C)”.
As for `CCO[C@@H]1C[C@H]2C(=O)NC3(CCC3)C(=O)N(C)[C@@H](C3CCCC3)C(=O)N(C)[C@H](C(=O)N(C)C)CC(=O)N(C)[C@@H](CC)C(=O)N[C@@H]([C@@H](C)CC)C(=O)N(C)CC(=O)N(C)[C@H]3CCCCCN(C3=O)[C@@H](Cc3ccc(F)c(OC)c3)C(=O)N(C)CC(=O)N[C@@H](CCc3cc(F)c(C(F)(F)F)c(F)c3)C(=O)N2C1` [PP0915], the “NRAS/KRAS (ratio of KD value for NRAS to KD value for KRAS)” value in test [1] was “B (a compound having 3 or more and less than 10 is denoted as B)”. In test [2] (SPR, Single Cycle Kinetics), the Kd is 140 pM. Moreover, the “HRAS/KRAS (ratio of KD value for HRAS to KD value for KRAS)” value in test [3] is “B (a compound having 3 or more and less than 10 is denoted as B)”.
Consider `CCO[C@@H]1C[C@H]2C(=O)NC3(CCC3)C(=O)N(C)[C@@H](C3CCCC3)C(=O)N(C)[C@H](C3CCCCC3)CC(=O)N(C)[C@@H](COC)C(=O)N[C@@H]([C@@H](C)CC)C(=O)N(C)CC(=O)N(C)[C@H]3C/C=C\CCN(C3=O)[C@@H](Cc3ccc(C(F)(F)F)cc3)C(=O)N(C)CC(=O)N[C@@H](CCc3cc(F)c(C(F)(F)F)c(F)c3)C(=O)N2C1` [PP1584], for which the “NRAS/KRAS (ratio of KD value for NRAS to KD value for KRAS)” value in test [1] (KD ratio class) is “B (a compound having 3 or more and less than 10 is denoted as B)”. Moreover, the Kd in test [2] (setting [5]) amounted to 560 pM. The “HRAS/KRAS (ratio of KD value for HRAS to KD value for KRAS)” value in test [3] (KD ratio class) is “B (a compound having 3 or more and less than 10 is denoted as B)”.
With `CCO[C@@H]1C[C@H]2C(=O)NC3(CC(C)(C)C3)C(=O)N(C)[C@@H](C(CC)CC)C(=O)N(C)[C@H](C(=O)N3CCCC3)CC(=O)N(C)[C@@H](COC)C(=O)N[C@@H]([C@@H](C)CC)C(=O)N(C)CC(=O)N(C)[C@H]3C/C=C\CCN(C3=O)[C@@H](Cc3ccc(C)cc3)C(=O)N(C)CC(=O)N[C@@H](CCc3ccc(C(F)(F)F)c(OC)c3)C(=O)N2C1` [PP2167], the “NRAS/KRAS (ratio of KD value for NRAS to KD value for KRAS)” value in test [1] is “AA (a compound having 20 or more is denoted as AA)”. Further, in test [2] (SPR, Single Cycle Kinetics), the Kd worked out at 710 pM. Moreover, the “HRAS/KRAS (ratio of KD value for HRAS to KD value for KRAS)” value in test [3] is “A (a compound having 10 or more and less than 20 is denoted as A)”.
On to `CCO[C@@H]1C[C@H]2C(=O)NC3(CC(C)(C)C3)C(=O)N(C)[C@@H](C(CC)CC)C(=O)N(C)[C@H](C(=O)N(C)C)CC(=O)N(C)[C@@H](CC)C(=O)N[C@@H]([C@@H](C)CC)C(=O)N(C)CC(=O)N(C)[C@H]3C/C=C\CCN(C3=O)[C@@H](Cc3ccc(C(F)(F)F)cc3)C(=O)N(C)CC(=O)N[C@@H](CCc3cc(F)c(C(F)(F)F)c(F)c3)C(=O)N2C1` [PP2062], for which, in test [1], the “NRAS/KRAS (ratio of KD value for NRAS to KD value for KRAS)” value is “AA (a compound having 20 or more is denoted as AA)”. Besides, in test [2] (SPR, Single Cycle Kinetics), the Kd is 190 pM. Further, in test [3], the “HRAS/KRAS (ratio of KD value for HRAS to KD value for KRAS)” value was “A (a compound having 10 or more and less than 20 is denoted as A)”.
As for `CCO[C@@H]1C[C@H]2C(=O)NC3(CC(C)(C)C3)C(=O)N(C)[C@@H](C(CC)CC)C(=O)N(C)[C@H](C(=O)N(C)C)CC(=O)N(C)[C@@H](CC3CC3)C(=O)N[C@@H]([C@@H](C)CC)C(=O)N(C)CC(=O)N(C)[C@H]3C/C=C\CCN(C3=O)[C@@H](Cc3ccc(C)cc3)C(=O)N(C)CC(=O)N[C@@H](CCc3ccc(C(F)(F)F)c(OC)c3)C(=O)N2C1` [PP2166], in test [1], the “NRAS/KRAS (ratio of KD value for NRAS to KD value for KRAS)” value is “A (a compound having 10 or more and less than 20 is denoted as A)”. Besides, the Kd in test [2] (SPR, Single Cycle Kinetics) was determined as 290 pM. The “HRAS/KRAS (ratio of KD value for HRAS to KD value for KRAS)” value in test [3] was “A (a compound having 10 or more and less than 20 is denoted as A)”.
Take `CCCN1C(=O)[C@@H]2CCN2C(=O)[C@H](C)N(C)C(=O)[C@H]([C@@H](C)CC)NC(=O)[C@H](CC(C)C)N(C)C(=O)C[C@@H](C(=O)N2CCOCC2)N(C)C(=O)[C@H](C2CCCC2)N(C)C(=O)C2(CCCC2)NC(=O)[C@@H]2C[C@H](OCC)CN2C(=O)[C@H](CCc2ccc(C(F)(F)F)c(Cl)c2)NC(=O)CN(C)C(=O)[C@@H]1Cc1ccc(C(F)(F)F)cc1` [PP0242] ([NMeL]I[NMeA][Aze][NPrPhe(4-CF3)][Sar][hPhe(3-Cl-4-CF3)][cisHyp](Et)[Ac5c][NMeGly(cPent)][NMeD]-Morpholide; lactam N-11): the “NRAS/KRAS (ratio of KD value for NRAS to KD value for KRAS)” value in test [1] was “C (A compound having a KD ratio of 0.1 or more and less than 3 is denoted as C)”. In addition, the Kd in test [2] (setting [4]) amounted to 200 pM. In test [3], the “HRAS/KRAS (ratio of KD value for HRAS to KD value for KRAS)” value is “C (A compound having a KD ratio of 0.1 or more and less than 3 is denoted as C)”.
For `CCCN1C(=O)CN(C)C(=O)CN(C)C(=O)[C@H]([C@@H](C)CC)NC(=O)[C@H](CC(C)C)N(C)C(=O)C[C@@H](C(=O)N(C)C)NC(=O)[C@H](C2CCCC2)N(C)C(=O)C2(CCCC2)NC(=O)[C@@H]2CC(F)(F)CN2C(=O)[C@H](CCc2ccc(C(F)(F)F)c(Cl)c2)NC(=O)CN(C)C(=O)[C@@H]1Cc1ccc(C(F)(F)F)cc1` [PP0357] ([NMeL]I[Sar][Sar][NPrPhe(4-CF3)][Sar][hPhe(3-Cl-4-CF3)][Pro(4,4-F2)][Ac5c][NMeGly(cPent)]D-NMe2; lactam N-11), the “NRAS/KRAS (ratio of KD value for NRAS to KD value for KRAS)” value in test [1] was “B (a compound having 3 or more and less than 10 is denoted as B)”. Further, the Kd in test [2] (setting [4]) amounted to 400 pM. Also, in test [3], the “HRAS/KRAS (ratio of KD value for HRAS to KD value for KRAS)” value is “B (a compound having 3 or more and less than 10 is denoted as B)”.
Turning to `CCCOC[C@H]1C(=O)N[C@@H]([C@@H](C)CC)C(=O)N(C)CC(=O)N(C)[C@H]2C/C=C\CCN(C2=O)[C@@H](Cc2ccc(C(F)(F)F)cc2)C(=O)N(C)CC(=O)N[C@@H](CCc2cc(F)c(C(F)(F)F)c(F)c2)C(=O)N2C[C@H](OCC)C[C@H]2C(=O)NC2(CC(C)(C)C2)C(=O)N(C)[C@@H](C2CCCC2)C(=O)N(C)[C@H](C(=O)N(C)CC)CC(=O)N1C` [PP1572], the “NRAS/KRAS (ratio of KD value for NRAS to KD value for KRAS)” value in test [1] (KD ratio class) is “A (a compound having 10 or more and less than 20 is denoted as A)”. In addition, the Kd in test [2] (setting [5]) amounted to 78 pM. Besides, the “HRAS/KRAS (ratio of KD value for HRAS to KD value for KRAS)” value in test [3] (KD ratio class) was “A (a compound having 10 or more and less than 20 is denoted as A)”.
Regarding `CCCN1C(=O)CN(C)C(=O)CN(C)C(=O)[C@H]([C@@H](C)CC)NC(=O)[C@H](CC(C)C)N(C)C(=O)C[C@@H](C(=O)N2CCOCC2)N(C)C(=O)[C@H](C2CCCC2)N(C)C(=O)C2(CCCC2)NC(=O)[C@@H]2CCCN2C(=O)[C@H](CCc2ccc(C(F)(F)F)c(Cl)c2)NC(=O)CN(C)C(=O)[C@@H]1Cc1ccc(C)cc1` [PP0059] ([NMeL]I[Sar][Sar][NPrPhe(4-Me)][Sar][hPhe(3-Cl-4-CF3)]P[Ac5c][NMeGly(cPent)][NMeD]-Morpholide; lactam N-11), the “NRAS/KRAS (ratio of KD value for NRAS to KD value for KRAS)” value in test [1] is “B (a compound having 3 or more and less than 10 is denoted as B)”. In test [2] (setting [4]), the Kd is 150 pM. The “HRAS/KRAS (ratio of KD value for HRAS to KD value for KRAS)” value in test [3] was “C (A compound having a KD ratio of 0.1 or more and less than 3 is denoted as C)”.
